Measurements published in the NIST ThermoML archive (doi:10.1016/j.jct.2006.03.017).
± gives the expanded uncertainty stated by the source.

What was measured:
[1] = refractive index (Na D-line) (dimensionless); details: 293.15 K; 101.33 kPa; Liquid; Standard Abbe refractometry
[2] = Liquid

refractive index [1]: 1.4603 ± 0.0032
mass density ([2]; 293.15 K, 101.33 kPa): 848.5 ± 44 kg/m3
vapor or sublimation pressure ([2]; 480.05 K, Distillation): 2 kPa
Compound: CCCCCCCC/C=C\CCCCCCCCO [(Z)-9-octadecen-1-ol]
